In patent US8962674B2 (Tokyo Institute of Technology, priority 2006, dated 2015):

Legend:
[1] = target: recombinant human β-secretase (rhBACE-1) (Homo sapiens (Human), UniProt P56817); assay: β-Secretase enzyme inhibition assay (Test Example 1); format: biochemical; settings: compound solution 3 μM (FIG. 1 legend: 1.0 μM), 37° C., 2 hr, fluorescent substrate peptide
Description: β-Secretase Enzyme Inhibition Assay
Compounds were dissolved in dimethylsulfoxide (DMSO), and further diluted in 0.1 M sodium acetate buffer (with 150 mM sodium chloride, pH 4.5). The solution with no compound was used as a negative control. Then, 100 μL of these solutions (compound concentration: 3 μM), 1 μL of recombinant human β-secretase (rhBACE-1, R&D), and 5 μL of the fluorescent substrate peptide were mixed in a black 96-well plate (Nunc). After mixtures were incubated in the dark at 37° C. for 2 hr, the fluorescence intensities of the mixtures were measured by fluorescence microplate reader (Wallac) at 540 nm for excitation and at 590 nm for emission. The inhibition ratio was calculated as a percentage of the negative control. The sequence of the peptide was […] and labeled with fluorescent donor (Cy3) at Ser-1 and with quencher (Cy5Q) at Lys-9, respectively (Invitrogen).

recombinant human BACE-1 = recombinant human BACE-1 (Homo sapiens (Human), UniProt P56817); assay: Calculation of 50% inhibitory concentration (IC50) of BACE-1 (Test Example 5); format: biochemical; settings: 37° C., 2.5 hr, fluorescent substrate peptide
Description: Compounds were dissolved in 0.1 M sodium acetate buffer (with 150 mM sodium chloride, pH 4.5) to each concentration with DMSO (concentration of compounds: 0.3, 0.9, 3.0, 9.0, and 30.0). The final concentration of DMSO was 10%. The solution with no compound was used as a negative control. 15 μL of these solutions, recombinant human BACE-1 (1.0 U/ml, Invitrogen), and the fluorescent substrate peptide (2.5 nM) were mixed in a black 384-well plate (Costar). Then, mixtures were incubated in the dark at 37° C. for 2.5 hr. The fluorescence intensities of the mixtures were measured at 540 nm for excitation and at 590 nm for emission. The inhibition ratio was calculated as a percentage of the negative control. The sequence of the peptide was […] and labeled with Cy3 at Ser-1 and with Cy5Q at Lys-9. Final concentrations of compounds were as follows: […].

Chain of recombinant human β-secretase (rhBACE-1) (P56817 46-501): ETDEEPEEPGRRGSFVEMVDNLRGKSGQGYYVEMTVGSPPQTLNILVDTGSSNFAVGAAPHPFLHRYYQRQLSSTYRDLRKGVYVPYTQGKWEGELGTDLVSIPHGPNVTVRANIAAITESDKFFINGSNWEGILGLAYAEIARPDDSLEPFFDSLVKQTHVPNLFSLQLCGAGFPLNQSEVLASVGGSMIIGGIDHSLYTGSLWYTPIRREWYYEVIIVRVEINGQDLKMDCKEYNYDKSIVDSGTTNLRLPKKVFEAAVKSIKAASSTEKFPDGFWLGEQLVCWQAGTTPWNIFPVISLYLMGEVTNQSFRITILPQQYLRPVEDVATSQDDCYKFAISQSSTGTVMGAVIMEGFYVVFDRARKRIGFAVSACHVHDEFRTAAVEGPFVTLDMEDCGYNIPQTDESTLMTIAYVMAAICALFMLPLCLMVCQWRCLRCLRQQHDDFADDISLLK
Chain of recombinant human BACE-1 (P56817 46-501): as above

inhibition of BACE-1 enzyme activity (inhibitory activities (%) shown in FIG. 1) [1] | melting point | SMILES | inhibitory effect on BACE-1 activity (IC50 shown in FIG. 2) (recombinant human BACE-1)
strongly inhibited | 173 to 175 °C | COc1cc(/C=C/C(=O)CC(=O)/C=C/c2ccc(O)c(C)c2)ccc1O [CU031, (1E,6E)-1-(4-hydroxy-3-methoxyphenyl)-7-(4-hydroxy-3-methylphenyl)hepta-1,6-diene-3,5-dione] | 
strongly inhibited | 74 to 80 °C | COc1ccc(/C=C/C(=O)CC(=O)/C=C/c2c(OC)cccc2OC)cc1O [CU104, (1E,6E)-1-(2,6-dimethoxyphenyl)-7-(3-hydroxy-4-methoxyphenyl)hepta-1,6-diene-3,5-dione] | 
strongly inhibited | 193 to 198 °C | COc1ccc(/C=C/C(=O)CC(=O)/C=C/c2ccc(O)cc2)c2ccccc12 [CU116, (1E,6E)-1-(4-hydroxyphenyl)-7-(4-methoxynaphthalen-1-yl)hepta-1,6-diene-3,5-dione] | 
strongly inhibited | 131 to 132 °C | COc1cc(/C=C/C(=O)CC(=O)/C=C/c2cccn2C)ccc1O [CU121, (1E,6E)-1-(4-hydroxy-3-methoxyphenyl)-7-(1-methyl-1H-pyrrol-2-yl)hepta-1,6-diene-3,5-dione] | 
strongly inhibited | 190 to 192 °C | COc1ccc(/C=C/C(=O)CC(=O)/C=C/c2cccc(O)c2OC)cc1O [CU176, (1E,6E)-1-(3-hydroxy-2-methoxyphenyl)-7-(3-hydroxy-4-methoxyphenyl)hepta-1,6-diene-3,5-dione] | 
strongly inhibited | 222 to 226 °C | O=C(/C=C/c1ccc(O)cc1)CC(=O)/C=C/c1ccc2[nH]ccc2c1 [CU187, (1E,6E)-1-(4-hydroxyphenyl)-7-(1H-indol-5-yl)hepta-1,6-diene-3,5-dione] | 
strongly inhibited | 182 to 185 °C | COc1ccc(/C=C/C(=O)CC(=O)/C=C/c2ccc3[nH]ccc3c2)cc1O [CU193, (1E,6E)-1-(3-hydroxy-4-methoxyphenyl)-7-(1H-indol-5-yl)hepta-1,6-diene-3,5-dione] | 
strongly inhibited | 217 to 222 °C | CN(C)c1ccc(/C=C/C(=O)CC(=O)/C=C/c2ccc(O)cc2)c([N+](=O)[O-])c1 [CU194, (1E,6E)-1-(4-dimethylamino-2-nitrophenyl)-7-(4-hydroxyphenyl)hepta-1,6-diene-3,5-dione] | 
strongly inhibited |  | Cn1cc(/C=C/C(=O)CC(=O)/C=C/c2ccc(O)cc2)cn1 [CU198, (1E,6E)-1-(4-hydroxyphenyl)-7-(1-methyl-1H-pyrrazol-4-yl)hepta-1,6-diene-3,5-dione] | 
 | 148 to 158 °C | O=C(/C=C/c1cc(O)ccc1-c1ccccc1)CC(=O)CCc1ccc(O)cc1 [CU541, (E)-1-(4-hydroxybiphenyl-2-yl)-7-(4-hydroxyphenyl)hept-1-ene-3,5-dione] | 
 | 138 to 142 °C | O=C(/C=C/c1cc(O)ccc1-c1cccc2ccccc12)CC(=O)CCc1ccc(O)cc1 [CU542, (E)-1-[5-hydroxy-2-(naphthalen-1-yl)phenyl]-7-(4-hydroxyphenyl)hept-1-ene-3,5-dione] | 
 | 45 to 51 °C | O=C(/C=C/c1ccc(O)c(Cl)c1)CC(=O)CCc1ccc(O)cc1 [CU546, (E)-1-(3-chloro-4-hydroxyphenyl)-7-(4-hydroxyphenyl)hept-1-ene-3,5-dione] | 
 | 161 to 165 °C | O=C(/C=C/c1cc(O)ccc1Br)CC(=O)CCc1ccc(O)cc1 [CU549, (E)-1-(2-bromo-5-hydroxyphenyl)-7-(4-hydroxyphenyl)hept-1-ene-3,5-dione] | 

Continued, compound first:

SMILES | inhibition of BACE-1 enzyme activity (inhibitory activities (%) shown in FIG. 1) [1] | melting point | inhibitory effect on BACE-1 activity (IC50 shown in FIG. 2) (recombinant human BACE-1)
COc1cc(/C=C/C(=O)CC(=O)/C=C/c2cccc(O)c2OC)ccc1O [CU001, (1E,6E)-1-(3-hydroxy-2-methoxyphenyl)-7-(4-hydroxy-3-methoxyphenyl)hepta-1,6-diene-3,5-dione] | strongly inhibited | 152 to 155 °C | 
CCn1c2ccccc2c2cc(/C=C/C(=O)CC(=O)/C=C/c3ccc(O)c(OC)c3)ccc21 [CU017, (1E,6E)-1-(9-ethyl-9H-carbazol-3-yl)-7-(4-hydroxy-3-methoxyphenyl)hepta-1,6-diene-3,5-dione] | strongly inhibited | 165 to 169 °C | 
O=C(/C=C/c1ccc(O)cc1)CC(=O)/C=C/c1ccc(O)c(F)c1 [CU030, (1E,6E)-1-(3-fluoro-4-hydroxyphenyl)-7-(4-hydroxyphenyl)hepta-1,6-diene-3,5-dione] | strongly inhibited | 190 to 192 °C | 
COc1ccc(/C=C/C(=O)CC(=O)/C=C/c2cc(O)cc(O)c2)cc1O [CU094, (1E,6E)-1-(3,5-dihydroxyphenyl)-7-(3-hydroxy-4-methoxyphenyl)hepta-1,6-diene-3,5-dione] | strongly inhibited | 190 to 193 °C | 
O=C(/C=C/c1ccc(O)cc1)CC(=O)/C=C/c1c[nH]c2ccccc12 [CU110, (1E,6E)-1-(4-hydroxyphenyl)-7-(1H-indol-3-yl)hepta-1,6-diene-3,5-dione] | strongly inhibited | 215 to 220 °C | 
O=C(/C=C/c1ccc(O)cc1)CC(=O)/C=C/c1cccc2ccccc12 [CU112, (1E,6E)-1-(4-hydroxyphenyl)-7-(naphthalen-1-yl)hepta-1,6-diene-3,5-dione] | strongly inhibited |  | 
COc1ccc(/C=C/C(=O)CC(=O)/C=C/c2cccn2C)cc1O [CU122, (1E,6E)-1-(3-hydroxy-4-methoxyphenyl)-7-(1-methyl-1H-pyrrol-2-yl)hepta-1,6-diene-3,5-dione] | strongly inhibited |  | 
COc1cc(/C=C/C(=O)CC(=O)/C=C/c2ccc3cc[nH]c3c2)ccc1O [CU190, (1E,6E)-1-(4-hydroxy-3-methoxyphenyl)-7-(1H-indol-6-yl)hepta-1,6-diene-3,5-dione] | strongly inhibited |  | 
O=C(/C=C/c1ccc(O)cc1)CC(=O)/C=C/c1cc(OCc2ccccc2)ccc1Br [CU531, (1E,6E)-1-(5-benzyloxy-2-bromophenyl)-7-(4-hydroxyphenyl)hepta-1,6-diene-3,5-dione] |  |  | inhibitory effect on BACE-1 activity at relatively low concentration
CN(C)c1ccc(C(F)(F)F)cc1/C=C/C(=O)CC(=O)/C=C/c1ccc(O)cc1 [CU535, (1E,6E)-1-(2-dimethylamino-5-trifluoromethylphenyl)-7-(4-hydroxyphenyl)hepta-1,6-diene-3,5-dione] |  | 68 to 74 °C | 
CN(C)c1cc(-c2ccccc2)ccc1/C=C/C(=O)CC(=O)/C=C/c1ccc(O)cc1 [CU536, (1E,6E)-1-(3-dimethylaminobiphenyl-4-yl)-7-(4-hydroxyphenyl)hepta-1,6-diene-3,5-dione] |  | 83 to 88 °C | 
CN(C)c1ccc(-c2ccccc2)cc1/C=C/C(=O)CC(=O)/C=C/c1ccc(O)cc1 [CU537, (1E,6E)-1-(4-dimethylaminobiphenyl-3-yl)-7-(4-hydroxyphenyl)hepta-1,6-diene-3,5-dione] |  | 82 to 88 °C | 
O=C(/C=C/c1ccc(O)cc1)CC(=O)/C=C/c1cc(O)ccc1-c1cccc2ccccc12 [CU538, (1E,6E)-1-[5-hydroxy-2-(naphthalen-1-yl)phenyl]-7-(4-hydroxyphenyl)hepta-1,6-diene-3,5-dione] |  | 215 to 221 °C | 
COc1cc(/C=C/C(=O)CC(=O)/C=C/c2ccc(O)cc2)c(Br)cc1O [CU539, (1E,6E)-1-(2-bromo-4-hydroxy-5-methoxyphenyl)-7-(4-hydroxyphenyl)hepta-1,6-diene-3,5-dione] |  | 237 to 242 °C | 
COc1cc(Br)c(/C=C/C(=O)CC(=O)/C=C/c2ccc(O)cc2)cc1O [CU543, (1E,6E)-1-(2-bromo-5-hydroxy-4-methoxyphenyl)-7-(4-hydroxyphenyl)hepta-1,6-diene-3,5-dione] |  | 224 to 229 °C | 
O=C(/C=C/c1ccc(O)cc1)CC(=O)/C=C/c1cc(O)c(Br)cc1Br [CU544, (1E,6E)-1-(2,4-dibromo-5-hydroxyphenyl)-7-(4-hydroxyphenyl)hepta-1,6-diene-3,5-dione] |  | 255 to 259 °C | 
